Measurements: patent US4686206A, “Composition for activating function of phagocytes” (Sunstar Kabushiki Kaisha, priority 1984, dated 1987)

What was measured:
[1] = test system: neutrophils; assay: Random migration of human neutrophils (Boyden chamber, PBS in lower part); type: cell-based; conditions: Neutrophil, 1 μg/ml, 15 min preincubation, 1 to 3 hours at 37° C., relative to control = 100%, read-out: random motoricity
Protocol: (§1) Neutrophils were separated from human peripheral blood and the effect of various tocopherylglycosides on random migration and chemotaxis of the neutrophils were measured by using Boyden chambers.
(§2) Tocopherol or a tocopheryl glycoside dissolved in 1% dimethylsulfoxide was added to a suspension containing 2.5×10^6 cells/ml of neutrophils so that a concentration of tocopherol or the tocopheryl glycoside was 1 μg/ml. After 15 minutes incubation at 37° C., the mixture was added to the upper part of the chamber. To the lower part of the chamber was added PBS in case of measuring random migration, or added 2×10^-8 M of N-formyl-methionyl-leucyl-phenylalanine in case of measuring chemotaxis. Then, the chamber was incubated at 37° C. for 1 to 3 hours. After incubation, the filter was fixed and stained with hematoxylin, and then the number of neutrophils migrated to the bottom of the filter was counted by using a microscope. As a control, the same procedure was repeated except that tocopherol or the tocopheryl glycoside was not added. In Table 1, the relative percentage of the counting obtained by addition of tocopherol or the tocopheryl glycoside is shown by taking the counting of the control as 100%.

[2] = test system: neutrophils; assay: Chemotaxis of human neutrophils (Boyden chamber, N-formyl-methionyl-leucyl-phenylalanine in lower part); type: cell-based; conditions: Neutrophil, 1 μg/ml, 2×10^-8 M N-formyl-methionyl-leucyl-phenylalanine, 1 to 3 hours at 37° C., relative to control = 100%
Protocol: as §1, §2

[3] = test system: neutrophils; assay: Phagocytosis of neutrophils (opsonized FITC-labeled Staphylococcus aureus IFO 13276); type: cell-based; conditions: Homo sapiens, Neutrophil, 0.25 h; 1 μg/ml; 15 min at 37° C.; relative to control = 100%
Protocol: Neutrophils were separated from human peripheral blood and a suspension containing 2.5×10^6 cells/ml of neutrophils was prepared. Tocopherol or a different tocopheryl glycoside was added to 900 μl of this suspension so that the concentration of tocopherol or the tocopheryl glycoside was 1 μg/ml and the mixture was incubated at 37° C. for 15 minutes.
The suspension (100 μl) containing 1×10^9 cells/ml of opsonized Staphylococcus aureus (IFO 13276) labeled with fluorescein isothiocyanate was added to the mixture. The resulting mixture was incubated at 37° C. for 15 minutes. Then, the number of cells incorporated into 100 cells of neutrophils was counted by using a fluorescence microscope. As a control, the same procedure was repeated except that tocopherol or the tocopheryl glycoside was not added. In Table 2, the relative percentage of the counting obtained by addition of tocopherol or the tocopheryl glycoside is shown by taking the counting of the control as 100%.

[4] = Acute toxicity (LD50) in rat; conditions: in vivo
[5] = test system: Pseudomonas aeruginosa (P-1 strain, Ikaken); assay: In vivo test to Pseudomonas aeruginosa (survival of infected mice); design: species or system ICR mice; conditions: 1 mg/kg i.v. once a day for three days; 2.5×10^7 cells P. aeruginosa i.p.; after 24 hours; control 0%
Protocol: An aqueous injectable solution of dl-α-tocopheryl glucoside or dl-α-tocopheryl mannoside (see Example 3) was intravenously injected to ICR mice (body weight: 20 to 25 g, 10 mice per a group (5 female mice and 5 male mice)) once a day (dose: 1 mg/kg) for three days continuously. After the final injection, 2.5×10^7 cells of Pseudomonas aeruginosa (P-1 strain, Ikaken) were injected i.p. and the percentage of survival animuls was determined after 24 hours. As a control, the same procedure was repeated except that an equal amount of distilled water was used instead of the tocopheryl glycoside and the percentage of survival animals was determined. As the result, the percentage of survival of the control group was 0%, whereas that of the group injected with dl-α-tocopherylglucoside or dl-α-tocopherylmannoside was 20%, respectively.

Compound | activity at 1 µg/mL [1] | activity at 1 µg/mL [2] | activity at 1 µg/mL [3] | LD50 ([4]; ip) | LD50 ([4]; po) | percentage of survival [5]
Cc1c(C)c2c(c(C)c1OC1O[C@H](CO)[C@H](O)[C@H](O)[C@H]1O)CCC(C)(CCCC(C)CCCC(C)CCCC(C)C)O2 (mixture of isomers) [dl-α-Tocopherylgalactoside, reference compound] | 64 ± 8% | 85 ± 3% | 112 ± 9% |  |  | 
Cc1c(C)c2c(c(C)c1O)CCC(C)(CCCC(C)CCCC(C)CCCC(C)C)O2 (racemic) [dl-α-Tocopherol, reference compound] | 82 ± 12% | 94 ± 5% | 164 ± 16% |  |  | 
Cc1c(C)c2c(c(C)c1OC1O[C@H](CO)[C@@H](O)[C@H](O)[C@H]1O)CCC(C)(CCCC(C)CCCC(C)CCCC(C)C)O2 (mixture of isomers) [dl-α-Tocopherylglucoside, dl-α-tocopherylglucoside] | 98 ± 34% | 140 ± 6% | 168 ± 31% | ≥ 500 mg/kg | ≥ 5000 mg/kg | 20%
Cc1c(C)c2c(c(C)c1O[C@@H]1O[C@H](CO)[C@@H](O)[C@H](O)[C@@H]1O)CCC(C)(CCCC(C)CCCC(C)CCCC(C)C)O2 (mixture of isomers) [dl-α-Tocopherylmannoside] | 71 ± 16% | 168 ± 3% | 219 ± 21% | ≥ 500 mg/kg | ≥ 5000 mg/kg | 20%
